Positions of bridges follow the written chain, without caps; N, C: chain ends. Non-standard residues stand in square brackets, D forms with d. Residues, ends and D or L forms follow the SMILES beside them. ξ: configuration not given here. *: point of attachment. Ala(1H-tetrazol-5-yl) = N[C@@H](Cc1nnn[nH]1)C(=O)O; Phe(4-COOH) = N[C@@H](Cc1ccc(C(=O)O)cc1)C(=O)O; Bip = N[C@@H](Cc1ccc(-c2ccccc2)cc1)C(=O)O; Phe(3-Me) = Cc1cccc(C[C@H](N)C(=O)O)c1; NMeY = CN[C@@H](Cc1ccc(O)cc1)C(=O)O; NMeF = CN[C@@H](Cc1ccccc1)C(=O)O; 4Pal = N[C@@H](Cc1ccncc1)C(=O)O; Cha = N[C@@H](CC1CCCCC1)C(=O)O; Thr(3ξ) = CC(O)[C@H](N)C(=O)O; Ala(CN) = N#CC[C@H](N)C(=O)O; Carboxymethyl = O=C(O)C*; NMeA = CN[C@@H](C)C(=O)O; Orn = NCCC[C@H](N)C(=O)O; dNMeA = CN[C@H](C)C(=O)O; Dab = NCC[C@H](N)C(=O)O; Dap = NC[C@H](N)C(=O)O; ξV = CC(C)C(N)C(=O)O
Molecular target: T1, human PD-1 (Jurkat-PD-1 cells) / PE-labeled human PD-L1-Ig (Homo sapiens, UniProt Q15116)
T1 construct: expressed in transfected cells; host or cells: Jurkat cell line over-expressing human PD-1
Experiment: Jurkat-PD-1 Cell Binding High-Content Screening Assay (CBA); Jurkat hPD1-PDL1 assay
Conditions: Jurkat cell line over-expressing human PD-1; PE-labeled PD-L1-Ig 20 nM final; compound incubated 2 hours at 37° C.; read-out: Jurkat HPD1-PDL1 IC50
Method in brief: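 Binding of phycoerythrin-conjugated PD-L1-Ig (20 nM final) to PD-1-overexpressing Jurkat cells was read by high-content imaging. Cells in DMEM/10% FCS were exposed to compound for 2 hours at 37° C before labeled ligand was added.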

T1 sequence (Q15116 25-288): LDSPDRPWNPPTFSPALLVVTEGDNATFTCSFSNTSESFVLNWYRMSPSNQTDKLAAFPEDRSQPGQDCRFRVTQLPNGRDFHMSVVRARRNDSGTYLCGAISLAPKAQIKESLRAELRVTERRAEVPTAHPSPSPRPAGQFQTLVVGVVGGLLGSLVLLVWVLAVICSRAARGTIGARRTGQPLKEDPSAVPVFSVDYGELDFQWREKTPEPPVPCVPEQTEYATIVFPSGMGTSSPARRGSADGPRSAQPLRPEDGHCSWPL

Structure (SMILES)	IC50 [nM]
CC(C)C[C@@H]1NC(=O)[C@H](Cc2c[nH]c3ccccc23)NC(=O)[C@H](CC(=O)O)NC(=O)[C@H](Cc2ccc(O)cc2)NC(=O)[C@H](CC(N)=O)NC(=O)CSC[C@@H](C(=O)N[C@@H](C)C(N)=O)NC(=O)[C@H](CO)NC(=O)[C@H](C(C)C)NC(=O)[C@H](CC(C)C)NC(=O)[C@H](CC(N)=O)NC(=O)[C@H]2CCCN2C(=O)[C@H](CCCN)NC(=O)[C@H](C(C)C)NC(=O)[C@H](Cc2ccc(-c3ccccc3)cc2)NC1=O [Example 1425] ({CH2CO}-NYDWL[Bip]V[Orn][dP]NLVSCA-NH2; thioether N-14)	190
CC(C)C[C@@H]1NC(=O)[C@H](Cc2c[nH]c3ccccc23)NC(=O)[C@H](CC(=O)O)NC(=O)[C@H](Cc2ccc(O)cc2)NC(=O)[C@H](CC(N)=O)NC(=O)CSC[C@@H](C(=O)N[C@@H](C)C(N)=O)NC(=O)[C@H]([C@@H](C)O)NC(=O)[C@H](C(C)C)NC(=O)[C@H](CC(C)C)NC(=O)[C@H](CC(N)=O)NC(=O)[C@H]2CCCN2C(=O)[C@H](CCCN)NC(=O)[C@H](C(C)C)NC(=O)[C@H](Cc2ccc(-c3ccccc3)cc2)NC1=O [Example 1426] ({CH2CO}-NYDWL[Bip]V[Orn][dP]NLVTCA-NH2; thioether N-14)	220
CC(C)C[C@@H]1NC(=O)[C@H](Cc2c[nH]c3ccccc23)NC(=O)[C@H](Cc2nn[nH]n2)NC(=O)[C@H](Cc2ccc(O)cc2)NC(=O)[C@H](Cc2ccccc2)NC(=O)CSC[C@@H](C(=O)N[C@@H](C)C(N)=O)NC(=O)[C@H](CO)NC(=O)[C@H](C(C)C)NC(=O)[C@H](CC(C)C)NC(=O)[C@H](CC(N)=O)NC(=O)[C@H]2CCCN2C(=O)[C@H](C)N(C)C(=O)[C@H](C(C)C)NC(=O)[C@H](Cc2ccc(-c3ccccc3)cc2)NC1=O [Example 1428] ({CH2CO}-FY[Ala(1H-tetrazol-5-yl)]WL[Bip]V[NMeA][dP]NLVSCA-NH2; thioether N-14)	370
CC(C)[C@@H]1NC(=O)[C@H](Cc2c[nH]c3ccccc23)NC(=O)[C@H](CC(=O)O)NC(=O)[C@H](Cc2ccc(C(=O)O)cc2)NC(=O)[C@H](Cc2ccc(OCC(=O)O)cc2)NC(=O)CSC[C@@H](C(=O)N[C@@H](C)C(N)=O)NC(=O)[C@H]([C@@H](C)O)NC(=O)[C@H](C(C)C)NC(=O)[C@H](CC2CCCCC2)NC(=O)[C@H](CCN)NC(=O)[C@H](Cc2ccc(O)cc2)N(C)C(=O)[C@H](CCCN)NC(=O)[C@H](CCC(=O)O)NC(=O)[C@H](Cc2ccc(-c3ccccc3)cc2)NC1=O [Example 1433] ({CH2CO}-Y(Carboxymethyl)[Phe(4-COOH)]DWV[Bip]E[Orn][NMeY][Dab][Cha]VTCA-NH2; thioether N-14)	260
CC(C)[C@@H]1NC(=O)[C@H](Cc2c[nH]c3ccccc23)NC(=O)[C@H](CC(=O)O)NC(=O)[C@H](Cc2ccncc2)NC(=O)[C@H](CN)NC(=O)CSC[C@@H](C(=O)NCC(N)=O)NC(=O)[C@H](C(C)O)NC(=O)[C@H](C(C)C)NC(=O)[C@H](CC2CCCCC2)NC(=O)[C@H](CCN)NC(=O)[C@@H](C)N(C)C(=O)[C@H](CCCN)NC(=O)[C@H](CN)NC(=O)[C@H](Cc2ccc(-c3ccccc3)cc2)NC1=O (stereo partly drawn) [Example 1434] ({CH2CO}-[Dap][4Pal]DWV[Bip][Dap][Orn][dNMeA][Dab][Cha]V[Thr(3ξ)]CG-NH2; thioether N-14)	100
CC(C)C[C@@H]1NC(=O)[C@H](Cc2c[nH]c3ccccc23)NC(=O)[C@H](CC(=O)O)NC(=O)[C@H](Cc2ccncc2)NC(=O)[C@H](Cc2ccc(OCC(=O)O)cc2)NC(=O)CSC[C@@H](C(=O)N[C@@H](C)C(N)=O)NC(=O)[C@H](CO)NC(=O)[C@H](C(C)C)NC(=O)[C@H](CC(C)C)NC(=O)[C@H](CC(N)=O)NC(=O)[C@H]2CCCN2C(=O)[C@H](C)N(C)C(=O)[C@H](C(C)C)NC(=O)[C@H](Cc2ccc(-c3ccccc3)cc2)NC1=O [Example 1435] ({CH2CO}-Y(Carboxymethyl)[4Pal]DWL[Bip]V[NMeA][dP]NLVSCA-NH2; thioether N-14)	90
CC(C)[C@@H]1NC(=O)[C@H](Cc2c[nH]c3ccccc23)NC(=O)[C@H](CC(=O)O)NC(=O)[C@H](Cc2ccncc2)NC(=O)[C@H](CN)NC(=O)CSC[C@@H](C(=O)N[C@@H](C)C(N)=O)NC(=O)[C@H]([C@@H](C)O)NC(=O)[C@H](C(C)C)NC(=O)[C@H](CC2CCCCC2)NC(=O)[C@H](CCN)NC(=O)[C@H](Cc2ccccc2)N(C)C(=O)[C@H](CCCN)NC(=O)[C@H](CCC(=O)O)NC(=O)[C@H](Cc2ccc(-c3ccccc3)cc2)NC1=O [Example 1439] ({CH2CO}-[Dap][4Pal]DWV[Bip]E[Orn][NMeF][Dab][Cha]VTCA-NH2; thioether N-14)	90

Now those with a lower IC50, led by results:

IC50 [nM]	Structure (SMILES)
10	CC(C)C[C@@H]1NC(=O)[C@H](Cc2c[nH]c3ccccc23)NC(=O)[C@H](CC#N)NC(=O)[C@H](Cc2ccc(O)cc2)NC(=O)[C@H](Cc2ccccc2)NC(=O)CSC[C@@H](C(=O)N[C@@H](C)C(N)=O)NC(=O)[C@H](CO)NC(=O)[C@H](C(C)C)NC(=O)[C@H](CC(C)C)NC(=O)[C@H](CC(N)=O)NC(=O)[C@H]2CCCN2C(=O)[C@H](C)N(C)C(=O)[C@H](C(C)C)NC(=O)[C@H](Cc2ccc(-c3ccccc3)cc2)NC1=O [Example 1429] ({CH2CO}-FY[Ala(CN)]WL[Bip]V[NMeA][dP]NLVSCA-NH2; thioether N-14)
80	CC(C)C[C@@H]1NC(=O)[C@H](Cc2c[nH]c3ccccc23)NC(=O)[C@H](CC(=O)O)NC(=O)[C@H](Cc2ccc(C(=O)O)cc2)NC(=O)[C@H](Cc2ccc(OCC(=O)O)cc2)NC(=O)CSC[C@@H](C(=O)N[C@@H](C)C(N)=O)NC(=O)[C@H](CO)NC(=O)[C@H](C(C)C)NC(=O)[C@H](CC(C)C)NC(=O)[C@H](CC(N)=O)NC(=O)[C@H]2CCCN2C(=O)[C@H](C)N(C)C(=O)[C@H](C(C)C)NC(=O)[C@H](Cc2ccc(-c3ccccc3)cc2)NC1=O [Example 1430] ({CH2CO}-Y(Carboxymethyl)[Phe(4-COOH)]DWL[Bip]V[NMeA][dP]NLVSCA-NH2; thioether N-14)
80	CC(C)C[C@@H]1NC(=O)[C@H](Cc2c[nH]c3ccccc23)NC(=O)[C@H](CC(=O)O)NC(=O)[C@H](Cc2ccc(OCC(=O)O)cc2)NC(=O)[C@H](Cc2ccc(OCC(=O)O)cc2)NC(=O)CSC[C@@H](C(=O)N[C@@H](C)C(N)=O)NC(=O)[C@H](CO)NC(=O)[C@H](C(C)C)NC(=O)[C@H](CC(C)C)NC(=O)[C@H](CC(N)=O)NC(=O)[C@H]2CCCN2C(=O)[C@H](C)N(C)C(=O)[C@H](C(C)C)NC(=O)[C@H](Cc2ccc(-c3ccccc3)cc2)NC1=O [Example 1432] ({CH2CO}-Y(Carboxymethyl)Y(Carboxymethyl)DWL[Bip]V[NMeA][dP]NLVSCA-NH2; thioether N-14)
40	Cc1cccc(C[C@@H]2NC(=O)[C@H](CC(=O)O)NC(=O)[C@H](Cc3ccc(C(=O)O)cc3)NC(=O)[C@H](Cc3ccc(OCC(=O)O)cc3)NC(=O)CSC[C@@H](C(=O)N[C@@H](C)C(N)=O)NC(=O)[C@H](CO)NC(=O)[C@H](C(C)C)NC(=O)[C@H](CC(C)C)NC(=O)[C@H](CC(N)=O)NC(=O)[C@H]3CCCN3C(=O)[C@H](C)N(C)C(=O)[C@H](C(C)C)NC(=O)[C@H](Cc3ccc(-c4ccccc4)cc3)NC(=O)[C@H](CC(C)C)NC2=O)c1 [Example 1436] ({CH2CO}-Y(Carboxymethyl)[Phe(4-COOH)]D[Phe(3-Me)]L[Bip]V[NMeA][dP]NLVSCA-NH2; thioether N-14)
30	Cc1cccc(C[C@@H]2NC(=O)[C@H](CC(=O)O)NC(=O)[C@H](Cc3ccc(OCC(=O)O)cc3)NC(=O)[C@H](Cc3ccc(OCC(=O)O)cc3)NC(=O)CSC[C@@H](C(=O)N[C@@H](C)C(N)=O)NC(=O)[C@H](CO)NC(=O)[C@H](C(C)C)NC(=O)[C@H](CC(C)C)NC(=O)[C@H](CC(N)=O)NC(=O)[C@H]3CCCN3C(=O)[C@H](C)N(C)C(=O)[C@H](C(C)C)NC(=O)[C@H](Cc3ccc(-c4ccccc4)cc3)NC(=O)[C@H](CC(C)C)NC2=O)c1 [Example 1437] ({CH2CO}-Y(Carboxymethyl)Y(Carboxymethyl)D[Phe(3-Me)]L[Bip]V[NMeA][dP]NLVSCA-NH2; thioether N-14)
70	CC(C)[C@@H]1NC(=O)[C@H](Cc2c[nH]c3ccccc23)NC(=O)[C@H](CC(=O)O)NC(=O)[C@H](Cc2ccc(C(=O)O)cc2)NC(=O)[C@H](Cc2ccncc2)NC(=O)CSC[C@@H](C(=O)N[C@@H](C)C(N)=O)NC(=O)[C@H]([C@@H](C)O)NC(=O)[C@H](C(C)C)NC(=O)[C@H](CC2CCCCC2)NC(=O)[C@H](CCN)NC(=O)[C@H](Cc2ccccc2)N(C)C(=O)[C@H](CCCN)NC(=O)[C@H](CCC(=O)O)NC(=O)[C@H](Cc2ccc(-c3ccccc3)cc2)NC1=O [Example 1438] ({CH2CO}-[4Pal][Phe(4-COOH)]DWV[Bip]E[Orn][NMeF][Dab][Cha]VTCA-NH2; thioether N-14)
70	CC(C)C1NC(=O)[C@H](Cc2c[nH]c3ccccc23)NC(=O)[C@H](CC(=O)O)NC(=O)[C@H](Cc2ccncc2)NC(=O)[C@H](Cc2ccc(OCC(=O)O)cc2)NC(=O)CSC[C@@H](C(=O)N[C@@H](C)C(N)=O)NC(=O)[C@H]([C@@H](C)O)NC(=O)[C@H](C(C)C)NC(=O)[C@H](CC2CCCCC2)NC(=O)[C@H](CCN)NC(=O)[C@H](Cc2ccccc2)N(C)C(=O)[C@H](CCCN)NC(=O)[C@H](CCC(=O)O)NC(=O)[C@H](Cc2ccc(-c3ccccc3)cc2)NC1=O (stereo partly drawn) [Example 1440] ({CH2CO}-Y(Carboxymethyl)[4Pal]DW[ξV][Bip]E[Orn][NMeF][Dab][Cha]VTCA-NH2; thioether N-14)
60	CC(C)C1NC(=O)[C@H](Cc2c[nH]c3ccccc23)NC(=O)[C@H](CC(=O)O)NC(=O)[C@H](Cc2ccc(O)cc2)NC(=O)[C@H](CC(N)=O)NC(=O)CSC[C@@H](C(=O)N[C@@H](C)C(N)=O)NC(=O)[C@H]([C@@H](C)O)NC(=O)[C@H](C(C)C)NC(=O)[C@H](CC2CCCCC2)NC(=O)[C@H](CCN)NC(=O)[C@H](Cc2ccccc2)N(C)C(=O)[C@H](CCCN)NC(=O)[C@H](CCC(=O)O)NC(=O)[C@H](Cc2ccc(-c3ccccc3)cc2)NC1=O (stereo partly drawn) [Example 1441] ({CH2CO}-NYDW[ξV][Bip]E[Orn][NMeF][Dab][Cha]VTCA-NH2; thioether N-14)

From patent publication US20240360178A1, “MACROCYCLIC IMMUNOMODULATORS” (Bristol-Myers Squibb Company, priority 2021, published 2024)
